The values below come from patent US20030195152A1, “Polymeric conjugates of antitumor agents” (priority 2000, published 2003).

For this series, the system named is human colon carcinoma (HT29). Description: Antitumor activity on human colon carcinoma (HT29) transplanted in nude mice. It is filed as in vivo. The settings on record: for TI % (tumor inhibition %): calculated at day 46, HT29 sc in nude mice. On the procedure:
Campound (A1a) was tested on human colon carcinoma (HT29) transplanted in nude mice, in comparison with the free drug 7-ethyl-10-hydroxycamptothecin (12) by i.v. route. A1a was found non toxic at all tested doses and gave 98% tumor inhibition at the highest tested dose of 20 mg/kg (Table 1).

Where [1] appears, read: dose 10 mg/kg i.v. q4dx6, total dose 60 mg/kg.
[2] abbreviates: dose 20 mg/kg i.v. q4dx6, total dose 120 mg/kg.
Setting [3] is: dose 30 mg/kg i.v. q4dx6, total dose 180 mg/kg.
Setting [4] is: dose 40 mg/kg i.v. q4dx6, total dose 240 mg/kg.

Consider `CCc1c2c(nc3ccc(O)cc13)-c1cc3c(c(=O)n1C2)COC(=O)[C@]3(O)CC` [Compound 12, 7-ethyl-10-hydroxycamptothecin, reference compound], for which the “Tox (number of mice died for toxicity/total number mice)” value under setting [1] is recorded as 0/7 and the “Tox (number of mice died for toxicity/total number mice)” value under setting [2] was 3/7. Besides, the “TI % (tumor inhibition %)” value is listed as 67% under setting [1] and 97% under setting [2].
“Copolymer of N-(2-hydroxypropyl)methacryloylamide, 7-ethyl-10-hydroxy-20-O-[N-methacryloyl-6-aminohexanoyl-(methionyl-sulfoxide)-glycyl-(S-benzyl-cysteinyl)-leucyl-glycyl]camptothecin and N-(2-hydroxypropyl)methacryloylglycinamide [Compound A1a]”: for the setting “all tested doses, i.v., nude mice bearing HT29”, the toxicity result was “non toxic”. Moreover, the “Tox (number of mice died for toxicity/total number mice)” value reads like this: under setting [1], 0/7; under setting [2], 0/7; under setting [3], 0/7; under setting [4], 0/7. Besides, the “TI % (tumor inhibition %)” value by setting is: under setting [1], 85%; under setting [2], 98%; (dose 20 mg/kg i.v. q4dx6, total dose 120 mg/kg, listed as Ala) 97%; under setting [3], 97%; under setting [4], 97%.
